Measurements taken from PMC9569680, “Antiviral Compounds Screening Targeting HBx Protein of the Hepatitis B Virus” (International Journal of Molecular Sciences, 2022).
Counter-ions that a name gives are not always drawn. Like-named read-outs stand apart in the source and are kept apart here.

Legend:
[1] = target: T1, GST-HBx (genotype D); HBx-D (Hepatitis B virus, UniProt Q80IS1); assay: biochemical; design: Surface plasmon resonance imaging; GST-HBx injected over chip of photo-crosslinked FDA-approved drugs (PlexArray HT), Langmuir fit
T1 construct: gene X; N-terminal GST tag kept (GST 26 kDa; GST-HBx 43 kDa), full-length HBx (154 aa), pGEX, E. coli BL21 (DE3), glutathione-Sepharose
Experimental: All the assays and analyses were performed by Plexera LLC. The binding activity was measured by surface plasmon resonance imaging (SPRi) using a PlexArray HT system (Plexera LLC). The FDA1018 drug library chip consists of an array of 1018 U.S. FDA-approved drugs were ultraviolet-linked on the surface of a chip and used for screening of compounds that bind to the HBx protein. Phosphate-buffered saline was used for a running buffer and 10 mM glycine hydrochloride (pH 2.0) for a regeneration buffer. 25, 50, or 100 nM of GST-HBx protein were injected on the chip surface at a flow rate of […] in order, and the SPRi signal was measured at 25 °C. FK506-binding protein 12 (FKBP12) was used for a positive control (Supplementary Figure S1). The data were analyzed by Plexera Data Analysis Software based on Langmuir adsorption isotherm, and determination of the dissociation constant, dissociation rate constant, and association rate constant was carried out. The binding of GST-HBx protein to 1018 FDA-approved compounds was screened on a chip by SPRi assay. […] Because purification of HBx alone was difficult due to insolubility, HBx was expressed as a GST-fused protein.

[2] = target: T1, GST-HBx (genotype D); HBx-D; assay: SPR imaging, compound array (PlexArray HT); assay type: binding
Source text: SPR imaging, compound array (PlexArray HT) on GST-HBx (genotype D); HBx-D

[3] = target: T2, GST-HBx (genotype B); HBx-B; assay: SPR imaging, compound array (PlexArray HT); design: species or system Hepatitis B virus; conditions: PBS, 25 °C; compound UV-linked to chip surface, GST-HBx 25-100 nM as analyte
T2 construct: gene X; N-terminal GST tag kept (GST 26 kDa; GST-HBx 43 kDa), full-length HBx (154 aa), pGEX, E. coli BL21 (DE3), glutathione-Sepharose

Compound	Kd [1] [nM]	koff [1] [s⁻¹]	kon ([1]; read-out: kon) [M⁻¹ s⁻¹]	Kd [2] [nM]	Kd [3] [nM]	kon ([1]; binder, kon (M-1 s-1)) [M⁻¹ s⁻¹]
Cc1cnc(C(=O)NCCc2ccc(S(=O)(=O)NC(=O)NC3CCCCC3)cc2)cn1 [Glipizide]	4.49	0.000203	45100			
CC1(C)[C@@H](O[C@H]2O[C@H](C(=O)O)[C@@H](O)[C@H](O)[C@H]2O[C@@H]2O[C@H](C(=O)O)[C@@H](O)[C@H](O)[C@H]2O)CC[C@]2(C)[C@H]3C(=O)C=C4[C@@H]5C[C@@](C)(C(=O)O)CC[C@]5(C)CC[C@@]4(C)[C@]3(C)CC[C@@H]12 [Ammonium glycyrrhizinate]		0.000108	143000	0.756		
O=C(O)c1ccc(-n2nc(-c3ccccc3O)nc2-c2ccccc2O)cc1 [Deferasirox]	1.4	0.000134	95800			
CC(C(=O)O)c1ccc(C(=O)c2cccs2)cc1 (stereo not drawn) [Suprofen]	2.75	0.000308	112000			
CC(C(=O)O)c1ccc2c(c1)Cc1cccnc1O2 (stereo not drawn) [Pranoprofen]	5.58	0.000292	52300			
CCOc1nc2cccc(C(=O)O)c2n1Cc1ccc(-c2ccccc2-c2noc(=O)[nH]2)cc1 [Azilsartan]	2.38	0.000348	146000			
CC1=NN(c2ccc(C)c(C)c2)C(=O)/C1=N\Nc1cccc(-c2cccc(C(=O)O)c2)c1O [Eltrombopag]	8.46	0.000385	45500			
CCCCCCCCCCCC[N+](C)(C)CCOc1ccccc1 [Domiphen Bromide]		3.03e-06	105000	0.0288		
CC[C@H]1OC(=O)[C@H](C)[C@@H](O[C@H]2C[C@@](C)(OC)[C@@H](O)[C@H](C)O2)[C@H](C)[C@@H](O[C@@H]2O[C@H](C)C[C@H](N(C)C)[C@H]2O)[C@](C)(O)C[C@@H](C)CN(C)[C@H](C)[C@@H](O)[C@]1(C)O [Azithromycin]	1.15		85100	0.0467	1.31	89200
CC(C)NCC(O)COc1ccc(CCOCC2CC2)cc1 (stereo not drawn) [Betaxolol]	1.28	9.85e-06	7710			
CCOc1nc2cccc(C(=O)O)c2n1Cc1ccc(-c2ccccc2-c2nnn[nH]2)cc1 [Candesartan]	1.33	0.00021	158000			
COc1ccc(/C=C/C(=O)Nc2ccccc2C(=O)O)cc1OC [Tranilast]		2.61e-07	194000	0.00135	0.184	
CCCCC(CC)CNC(=N)NC(=N)NCCCCCCNC(=N)NC(=N)NCC(CC)CCCC (stereo not drawn) [Alexidine hydrochloride]		7.83e-06	158000	0.0495		
CCCc1nc(C(C)(C)O)c(C(=O)OCc2oc(=O)oc2C)n1Cc1ccc(-c2ccccc2-c2nnn[nH]2)cc1 [Olmesartan medoxomil]		0.000581	108000			
CC[C@H]1OC(=O)C[C@@H](O)[C@H](C)[C@@H](O[C@@H]2O[C@H](C)[C@@H](O)[C@H](N(C)C)[C@H]2O)[C@@H](CCN2C[C@H](C)C[C@H](C)C2)C[C@@H](C)C(=O)/C=C/C(C)=C/[C@@H]1CO[C@@H]1O[C@H](C)[C@@H](O)[C@@H](OC)[C@H]1OC [Tilmicosin]	1.3	8.79e-05	67700			
CCCCC(=O)N(Cc1ccc(-c2ccccc2-c2nn[nH]n2)cc1)[C@H](C(=O)O)C(C)C [Valsartan]		0.00017	186000	0.912	7.94	
Cc1noc(NS(=O)(=O)c2ccc(N)cc2)c1C [Sulfisoxazole]	9.88	0.000509	51500			
CC(C)[C@H]1CC[C@H](C(=O)N[C@H](Cc2ccccc2)C(=O)O)CC1 [Nateglinide]	2.31	0.00016	69100			
CCC1=C(C)CN(C(=O)NCCc2ccc(S(=O)(=O)NC(=O)N[C@H]3CC[C@H](C)CC3)cc2)C1=O [Glimepiride]	9.81	0.000366	37300			
